Experimental data taken from US9469878B2, “Methods of treating cancer comprising targeting NQO1” (The Board of Regents of the University of Texas System, priority 2010, dated 2016).
Blank lines part the entries; values can stand above or below the compound they belong to.

How the values were obtained:
[1] = tested on: PARP1 in A549 NSCLC cells; assay: PAR formation, Western blot; type: cell-based, human; settings: 25 mM, β-lap-treated A549 NSCLC cells
Protocol: Whole-cell extracts were prepared, proteins separated by SDSPAGE, and Western blots developed using SuperSignal® West Pico Chemiluminescent substrate (Thermo Scientific, Rockford, Ill.), and exposed using Autoradiography Film (Denville Scientific Inc., Metuchen, N.J.). An anti-human NQO1 antibody was kindly provided to us by Dr. David Ross (University of Colorado Health Science Center, Denver, Colo.) and used at a 1:5000 dilution overnight at 4° C.

PARP1 in MCF-7 cells = assay: Western-blot analyses for PARP1 cleavage; type: cell-based, human; settings: pre-treatment, 4 μM β-lap 2 h pulse
Protocol: For Western-blot analyses for PARP1 cleavage-MCF-7 cells seeded in 10 cm dishes were treated with 4 μM β-lap in the absence or presence of 1000 U of catalase dissolved in hepes buffer pH 7.4 for 2 h. Cells were then given fresh media and incubated at 37° C. for 24 h. Cells were then harvested in PARP1 lysis buffer. Lysates were resolved in 10% SDS-PAGE and immunoblotted onto PVDF membranes and probed with a monoclonal PARP1 antibody (SC-8007). […] Relative PAR levels were calculated by densitometric analyses by NIH ImageJ using PARP1 loading controls. Measurements were normalized to t=0 levels. Western blots shown are representative of separate experiments performed at least three times.

PC-3 cells = assay: Intracellular NAD+ and ATP levels; type: cell-based, human; settings: pre- and co-treatment, 2 or 3 Gy+3 μM β-lap
Protocol: ATP levels were analyzed from whole-cell extracts using CellTiter-Glo Luminescent Cell Viability Assays (Promega, Madison, Wis.) following the manufacture's instructions. Data were graphed as means±SE from at least three independent experiments in triplicates.

NQO1 [2] = molecular target: NQO1 (Homo sapiens, UniProt P15559); assay: NQO1 enzyme assays using β-lapachone or the standard menadione substrates; type: biochemical; set-up: S9 Supernatants were prepared from cells in mid-log to late log phase growth; endogenous in cells; host or cells: cancer cell lines, mostly from a non-small cell lung cancer panel; S9 supernatants; settings: menadione as substrate
Chain of NQO1 (Homo sapiens, UniProt P15559) (P15559 whole entry): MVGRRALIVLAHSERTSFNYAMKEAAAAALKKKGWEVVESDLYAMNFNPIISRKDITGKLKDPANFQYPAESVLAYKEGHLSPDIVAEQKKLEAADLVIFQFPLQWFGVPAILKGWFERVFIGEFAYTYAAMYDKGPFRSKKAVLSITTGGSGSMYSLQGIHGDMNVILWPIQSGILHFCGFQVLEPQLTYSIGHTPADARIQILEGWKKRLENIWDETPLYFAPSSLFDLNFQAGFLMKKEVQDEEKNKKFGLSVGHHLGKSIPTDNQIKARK
Protocol: (§1) S9 Supernatants were prepared from cells in mid-log to late log phase growth. […] The cell suspensions were sonicated on ice four times, using 10-s pulses, and then centrifuged at 14,000×g for 20 min. The S9 supernatants were aliquoted into microcentrifuge tubes and stored at −80° C. until used. A 1× protease inhibitor cocktail was added to prevent enzyme activity degradation. […] Menadione was used as the electron acceptor. NADH was used as the electron donor.
(§2) NQO1 activity was measured using NADH (200 μM) as the immediate electron donor and menadione (10 μM) as the intermediate electron acceptor. […] Biochem. Biophys. […] NADH: cytochrome b5 reductase was measured using NADH (200 μM) as the electron donor, and […] was measured using NADPH (200 μM) as electron donor (45) in a Beckman DU 640 spectrophotometer (Beckman Coulter, Fullerton, Calif.). Reactions were carried out at 37° C. and were initiated by the addition of S9 supernatants. Varying amounts of supernatants, from 10 to 40 μL, were used to ensure linearity of rates with protein concentration. […] Results shown are the average enzyme activity for three separate cell extractions±S.D. or both values from duplicate experiments.
(§3) Cell lines, mostly from a 5-panel nonsmall cell lung cancer panel from the UT Southwestern SPORE, were assessed for NQO1 polymorphism status and then monitored for NQO1 enzyme assays using β-lapachone or the standard menadione substrates. […] NQO1*2/*2 and *3/*3 polymorphisms were detected from NQO1 *1/*1 wild-type sequences by PCR-RFLP. Genomic DNA was extracted from the cells using Qiagen spin columns. Using previously described oligonucleotide primers, PCR products underwent gel electrophoresis. Final genotyping was determined based on the size and pattern of separated bands diagnostic for *1/*1 (wild-type), or polymorphic *2/*2 or *3/*3 NQO1 polymorphisms.

NQO1 [3] = molecular target: T1, NQO1 (Homo sapiens, UniProt P15559, P187S); assay: as above; type: biochemical; settings: single value given
T1 construct: S9 Supernatants were prepared from cells in mid-log to late log phase growth; endogenous in cells; host or cells: cancer cell lines, mostly from a non-small cell lung cancer panel; S9 supernatants
T1 sequence (P15559 whole entry P187S): as the sequence (P15559 whole entry) above, with P187S counted along it
Protocol: as §1, §2, §3

NQO1 [4] = assay: as above; type: biochemical, human; settings: menadione as substrate
Protocol: as §1, §2, §3

NQO1 [5] = molecular target: T2, NQO1 (Homo sapiens, UniProt P15559, R139W); assay: as above; type: biochemical; settings: menadione as substrate
T2 construct: S9 Supernatants were prepared from cells in mid-log to late log phase growth; endogenous in cells; host or cells: cancer cell lines, mostly from a non-small cell lung cancer panel (e.g. Calu-3); S9 supernatants
T2 sequence (P15559 whole entry R139W): as the sequence (P15559 whole entry) above, with R139W counted along it
Protocol: as §1, §2, §3

[6] = tested on: MDA-MB-231 cells expressing NQO1 (231+); assay: Long term survival assay; type: cell-based, human; settings: 231-NQ+ cells
Protocol: Cells were cultured and treated as described above.
Data were expressed as relative survival (treated/control×100%).

[7] = tested on: Human (shown) or mouse rbs; assay: Hemolysis of red blood cells; type: cell-based; settings: rbs incubated with HPβCD alone, HPβCD-β-lap, or β-lap alone in DMSO
Protocol: Human (shown) or mouse rbs were incubated with HPβCD alone or HPβCD-β-lap, or β-lap alone in DMSO.

Compound: NC(=O)c1cccc(N)c1 [3-aminobenzamide]
Effect on PAR formation [1]: spares and delays PAR formation

Compound: CC(=O)OCOC(=O)CN(CC(=O)OCOC(C)=O)c1ccccc1OCCOc1ccccc1N(CC(=O)OCOC(C)=O)CC(=O)OCOC(C)=O [BAPTA-AM]
Effect on β-lap-mediated proteolysis of PARP1 and lethality (PARP1 in MCF-7 cells): prevented

Compound: O=C1NCCc2c(OCCCCN3CCCCC3)cccc21 [DPQ, 3,4-dihydro-5[4-(1-piperindinyl)butoxy]-1(2H)-isoquinoline]
Effect on synergistic losses of ATP (PC-3 cells): prevented

NQO1 activity, Men (NQO1 [2]; H322 *1/*1): 1234 +/− 40; ND nMoles/min/μg | NQO1 activity, Men (NQO1 [2]; H1648 *1/*1): 1370 +/− 17; ND nMoles/min/μg | NQO1 activity, Men (NQO1 [2]; H1993 *1/*1): 1170 ± 30 nmol/min/µg | NQO1 activity, Men (NQO1 [2]; H2073 *1/*1): 1340 +/− 20; ND nMoles/min/μg | NQO1 activity, Men (NQO1 [3]; H596/NSCLC *2/*2): <1 ± 0.01 nmol/min/µg | NQO1 activity, Men (NQO1 [3]; H2882/NSCLC *2/*2): <1 ± 0.01 nmol/min/µg | NQO1 activity, Men (NQO1 [3]; HCC366/NSCLC *2/*2): <1 ± 0.01 nmol/min/µg | NQO1 activity, Men (NQO1 [3]; MDA-MB-231/Breast *2/*2): 1 ± 0.05 nmol/min/µg | NQO1 activity, Men (NQO1 [3]; MDA-MB-468/Breast *2/*2): <1 ± 0.01 nmol/min/µg | NQO1 activity, Men (NQO1 [4]; H292 *1/*2): 169 +/− 17; ND nMoles/min/μg | NQO1 activity, Men (NQO1 [4]; HCC44 *1/*2): 148 ± 14 nmol/min/µg | NQO1 activity, Men (NQO1 [5]; Calu-3/NSCLC *3/*3): 48 ± 3 nmol/min/µg | NQO1 activity, Men (NQO1 [5]; H2009/NSCLC *3/*3): 4.0 ± 1 nmol/min/µg | NQO1 activity, Men (NQO1 [5]; HCC1171/NSCLC *3/*3): 98 ± 17 nmol/min/µg | NQO1 activity, Men (NQO1 [5]; T47D/BreastCancer *3/*3): 32 ± 2 nmol/min/µg
Compound: CC1=CC(=O)c2ccccc2C1=O [Men, menadione]

Compound: CC(=O)N[C@@H](CS)C(=O)O [NAC, N-acetyl-L-cysteine]
Effect on lethal effects of β-lap ([6]; pre- and co-treatments): protected against the lethal effects of 2 μM β-lap, but not 3 μM

Compound: Catalase
Catalase amount that significantly protected cells from the lethal effects of β-lap ([6]; exogenous catalase): ≥ 500 units

Compound: Z-VAD
Effect on β-lap-mediated proteolysis of PARP1 and lethality (PARP1 in MCF-7 cells): ineffective

Compound: hydroxypropyl-β-cyclodextrin [HPβCD]
Hemolysis [7]: caused significant hemolyses
